Experimental data: patent US12618845B2, “Methods and compositions for protein sequencing” (Quantum-Si Incorporated, priority 2018, dated 2026)
Entries after “also recorded” stand apart in the source; their conditions may differ. Square brackets hold non-standard residues; d marks the D form. Ends that are not written are not given here. Lys(N3) = [N-]=[N+]=NCCCC[C@H](N)C(=O)O

System: amino acid at a terminal position of a polypeptide
Experiment: not given
Details: amino acid identity at a terminal position of a polypeptide; phospho-Y also at an internal position; cited from earlier work

Row | Substance | Binding Pref.
1 | H. sapiens Src tyrosine kinase SH2 domain: amino acid recognition protein, SEQ ID NO: 24 | phospho-Y
2 | H. sapiens p62 fragment 1-180: amino acid recognition protein, SEQ ID NO: 27 | K, R, H,; also recorded: W, F, Y
3 | H. sapiens p62 fragment 1-310: amino acid recognition protein, SEQ ID NO: 26 | K, R, H,; also recorded: W, F, Y
4 | H. sapiens p62 fragment 126-180: amino acid recognition protein, SEQ ID NO: 28 | K, R, H,; also recorded: W, F, Y
5 | Rattus norvegicus p62 protein: amino acid recognition protein, SEQ ID NO: 30 | K, R, H,; also recorded: W, F, Y

Molecular target: T1, rat aminopeptidase N (Rat APN) (Rattus norvegicus, UniProt P15684)
T1 sequence (P15684 1-965): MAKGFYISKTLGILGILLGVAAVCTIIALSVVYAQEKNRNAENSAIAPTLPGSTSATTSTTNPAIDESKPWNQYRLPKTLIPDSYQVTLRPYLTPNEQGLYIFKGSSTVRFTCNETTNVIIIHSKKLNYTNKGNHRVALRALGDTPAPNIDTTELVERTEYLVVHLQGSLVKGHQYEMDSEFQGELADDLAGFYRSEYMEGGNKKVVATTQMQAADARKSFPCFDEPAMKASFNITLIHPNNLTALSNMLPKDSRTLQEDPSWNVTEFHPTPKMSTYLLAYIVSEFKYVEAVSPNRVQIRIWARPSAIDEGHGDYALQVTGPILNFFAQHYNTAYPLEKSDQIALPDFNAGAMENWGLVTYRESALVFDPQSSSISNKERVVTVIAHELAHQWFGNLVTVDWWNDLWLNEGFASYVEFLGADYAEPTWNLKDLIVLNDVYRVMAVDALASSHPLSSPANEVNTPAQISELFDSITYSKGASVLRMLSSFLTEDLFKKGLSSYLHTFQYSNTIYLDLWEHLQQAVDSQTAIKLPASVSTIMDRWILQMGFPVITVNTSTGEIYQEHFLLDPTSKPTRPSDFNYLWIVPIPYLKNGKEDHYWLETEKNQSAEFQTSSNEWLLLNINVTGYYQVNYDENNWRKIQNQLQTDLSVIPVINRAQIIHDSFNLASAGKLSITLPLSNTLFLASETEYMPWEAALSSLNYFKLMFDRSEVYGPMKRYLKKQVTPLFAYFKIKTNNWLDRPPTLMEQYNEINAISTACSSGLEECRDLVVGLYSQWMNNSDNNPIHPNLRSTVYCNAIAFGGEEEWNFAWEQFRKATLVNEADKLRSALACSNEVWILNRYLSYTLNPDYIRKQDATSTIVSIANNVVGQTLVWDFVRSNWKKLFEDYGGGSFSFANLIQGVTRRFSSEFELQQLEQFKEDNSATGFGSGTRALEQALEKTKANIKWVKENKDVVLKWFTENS
Experiment: Terminal amino acid cleavage of peptide-linker conjugates monitored by LCMS, Rat APN
Type: biochemical
Details: incubated with Rat APN
Description: (§1) The peptide-linker conjugates were evaluated for amino acid cleavage at peptide N-termini by N-terminal aminopeptidases (Table 6, below).
(§2) The peptide-linker conjugates shown in Table 6 were incubated with either proline iminopeptidase (“PIP”) or rat aminopeptidase N (“Rat APN”), and peptide cleavage was monitored by LCMS. All other cleavage reactions were measured in a similar manner.

Row | Substance | Cleaved by Rat APN
6 | AAMAAM{LYS(N3)} [Entry 7] | Yes
7 | DDMDDM{LYS(N3)} [Entry 5] | Yes
8 | FFMFFM{LYS(N3)} (FFMFFM[Lys(N3)]; also: oligo linker) [Entry 6, 73, aromatic class, oligo linker] | Yes
9 | KKMKKM{LYS(N3)} [2] (KKMKKM[Lys(N3)]; also: oligo linker) [Entry 2, 71, positive class, oligo linker] | No
10 | KKMKKM{LYS(N3)} [3] (KKMKKM[Lys(N3)]; also: oligo-PEG linker) [Entry 3, 71, positive class, oligo-PEG linker] | No
11 | KKMKKM{LYS(N3)} [4] (KKMKKM[Lys(N3)]; also: PEG4 linker) [Entry 4, 71, positive class, PEG4 linker] | Yes

System: proline iminopeptidase (PIP)
Experiment: Terminal amino acid cleavage of peptide-linker conjugates monitored by LCMS, PIP
Type: biochemical
Details: incubated with PIP
Description: as §1, §2

Row | Substance | Cleaved by PIP
12 | DPDPDP{LYS(N3)} [Entry 9] | Yes
13 | FPFPFP{LYS(N3)} [Entry 8] | Yes
14 | KPKPKP{LYS(N3)} [Entry 10] | No
15 | KPKPKP{LYS(N3)} [Entry 11] | Yes
